Columns and labels:
[1] = Intrinsic clearance in liver microsomes; type: in vitro ADME; details: liver microsomes, 37 °C, NADPH, 45 min, mean of 5
Procedure: The reaction is terminated by the addition of methanol. Following centrifugation, the supernatant is analyzed on the LC-MS/MS. […] The data is the mean on 5 separate experiments.
The ln peak area ratio (compound peak area/internal standard peak area) is plotted against time and the gradient of the line determined.
(see Supplementary data file for details).

[2] = Stability and intrinsic clearance in cryopreserved hepatocytes; details: rat
Procedure: Reactions were terminated by addition of 100 μL of acetonitrile containing carbamazepine as the analytical internal standard. Samples were centrifuged and the supernatant fractions analysed by LC-MS/MS. The instrument responses (peak heights) were referenced to the zero time-point samples (as 100%) in order to determine the percentage of compound remaining. Ln plots of the % remaining, for each compound, were used to determine the half-life for the hepatocyte incubations.

5HT2B site = target: T1, 5HT2B site (Homo sapiens, UniProt P41595); experiment: CEREP selectivity screen, binding assay; details: read-out: highest inhibition, 5HT2B site
T1 construct: Cerep (CRO)
Procedure: The CEREP selectivity screen was performed on the following targets:
A1, A2A, A3, α1, α2, β1, β2, AT1, AT2, BZD central, BZD periph, BB, B2, CGRP, CB1, CCK1, CCK2, D1, D2S, D3, D4.4, D5, ETA, ETB, GABA, GAL1, GAL2, PDGF, CXCR2, CCR1, TNF- α, H1, H2, MC4, MT1, M1, M2, M3, M4, M5, NK1, NK2, NK3,Y1, Y2, NTS1(NT1), δ2, κ, µ, NOP(ORL1) , PAC1(PACAP), PPARγ, PCP, EP2, EP4, IP(PGI2,), P2X, P2Y,5-HT1A, 5-HT1B, 5-HT2A, 5-HT2B, 5-HT2C, 5-HT3, 5-HT5A, 5-HT6, 5-HT7, σ, sst, GR, ER, VPAC1(VIP1), V1a, Ca^2+ channel (L), KV channel, KV channel, SKCa channel, Na^+ channel, Cl^- channel, norepinephrine transporter. dopamine transporter, 5-HT transporter.

Solubility in water = type: physicochemical; details: as the sodium salt in water at 35 °C
[3] = Log D pH 7.4, octanol/buffer shake flask method
Procedure: Briefly, octanol (pre-saturated with buffer) is added to the test compound and sonicated. Buffer at pH 7.4 (presaturated with octanol) is then added to the octanol. […] The system is mixed to allow distribution of the compound between the two phases.
Log D = Log (Coct / Caq ). Where: Coct = Concentration in octanol sample (corrected for dilution) and Caq = Concentration in aqueous sample (corrected for dilution)

T1 sequence (P41595 whole entry): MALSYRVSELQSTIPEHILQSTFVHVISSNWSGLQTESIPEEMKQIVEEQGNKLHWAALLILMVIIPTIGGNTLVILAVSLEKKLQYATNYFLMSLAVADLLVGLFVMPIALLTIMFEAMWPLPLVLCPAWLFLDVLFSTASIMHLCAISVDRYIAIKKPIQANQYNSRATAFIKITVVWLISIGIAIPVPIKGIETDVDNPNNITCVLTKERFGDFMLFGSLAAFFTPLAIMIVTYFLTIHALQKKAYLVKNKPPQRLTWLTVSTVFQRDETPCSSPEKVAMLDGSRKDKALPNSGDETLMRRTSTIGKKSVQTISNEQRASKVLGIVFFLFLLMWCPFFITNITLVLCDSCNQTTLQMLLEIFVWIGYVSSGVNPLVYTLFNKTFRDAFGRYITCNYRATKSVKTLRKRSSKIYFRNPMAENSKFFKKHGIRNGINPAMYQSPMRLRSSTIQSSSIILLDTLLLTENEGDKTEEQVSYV

**Q.** For CCOc1c(Cl)cc(C(=O)Nc2ccc(C(=O)O)c(C)c2)cc1OC(C)C [Compound 56, 4-(3-Chloro-4-ethoxy-5-isopropoxybenzamido)-2-methylbenzoic acid], which microsomal CLint ([1]; human microsomes) is on record?
**A.** The microsomal CLint was 5.3 µL/min/mg.

**Q.** What about the microsomal CLint ([1]; mouse microsomes) of the same compound?
**A.** Its microsomal CLint is 37.6 µL/min/mg.

**Q.** And the half-life at 1 μM [2]?
**A.** Its half-life at 1 μM is 5.95 h.

**Q.** And the half-life at 30 μM [2]?
**A.** The half-life at 30 μM was over 7.5 h.

**Q.** What about the hepatocyte CLint at 1 μM [2] of the same compound?
**A.** The hepatocyte CLint at 1 μM was 4 µL/min/1e6 cells.

**Q.** What about the hepatocyte CLint at 30 μM [2] of the same compound?
**A.** The hepatocyte CLint at 30 μM was under 3 µL/min/1e6 cells.

**Q.** What about the inhibition at 10 µM (5HT2B site) of the same compound?
**A.** Its inhibition at 10 µM is 25%.

**Q.** And the solubility (Solubility in water)?
**A.** The solubility was over 5000 µg/mL.

**Q.** What about the logD [3] of the same compound?
**A.** Its logD is 1.8.

Source: publication PMC5823845 (Bioorganic & Medicinal Chemistry, 2018)
